Assay results reported in patent US8546421B1, “Oncogenic-RAS-signal dependent lethal compounds” (The Trustees of Columbia University in the City of New York, priority 2007, dated 2013).
“And” between values parts separate entries of the source, which are not always exact repeats. Identical values can stand only once. “Also recorded” adds a separate entry of the source.

Experiments:
[1] = tested on: PARP-1 cleavage in BJ-TERT/LT/ST/RAS^V12 cells; assay: Western blot of PARP-1 cleavage upon compound treatment; assay type: cell-based, human; conditions: Western blot with anti-PARP-1 antibody
Procedure: 2×10^6 BJ-TERT/LT/ST/RAS^V12 cells were seeded in 10 cm dishes and treated with 1 μM staurosporine, 10 μg/mL erastin, 20 μg/mL Compound 3, and 1 μg/mL Compound 27 for 16 h. Both dying cells and live cells in each 10 cm dish were harvested and collected in the same 15 mL tubes by centrifuging cell suspension at 1,000 rpm for 5 min. Cell pellets were washed three times with PBS and cells were lysed in 200 μL of denaturing lysis buffer (50 mM HEPES KOH [pH 7.4], 40 mM NaCl, 2 mM EDTA, 1.5 mM Na3VO4, 50 mM NaF, 10 mM sodium pyrophosphate, 10 mM sodium β-glycerophosphate, 0.5% Triton X-100, and protease inhibitor tablet [Roche, cat.#11836170001]). Protein content was quantified using a Bio-Rad protein assay reagent (Bio-Rad, cat.#500-00006). Equal amounts of protein were resolved on SDS-polyacrylamide gels. The electrophoresed proteins were transblotted onto a PVDF membrane, blocked with 5% milk, and incubated with rabbit primary antibodies specific to: PARP (Santa Cruz, cat.#sc-7150), cleaved caspase-3 (Cell Signaling Technology, cat.#9661) overnight at 4° C. The membrane was then incubated in IRDye 800 goat anti-rabbit antibody (Li-cor Bioscience cat.#926-32211) at 1:3,000 dilutions for 45 min at room temperature. After washing off the unbound antibodies, membranes were scanned using the Odyssey™ Imaging System (Li-cor Bioscience).

HT1080-TfR1KD cells = assay: Drug sensitivity after shRNA knockdown of TfR1; assay type: cell-based, human; conditions: alamar blue
Procedure: (§1) On day one, 3×10^5 Calu-1 cells or 2×10^5 HT1080 cells were seeded in 10-cm dishes; on day 2, frozen virus stock was thawed at 37° C., hexadimethrine bromide (polybrene) (Sigma, cat.#H9268) was added to the virus solution at a final concentration of 8 μg/mL and growth media from cell culture was replaced with the virus/polybrene mixture. The culture was returned to the tissue culture incubator for 2 hours, with rocking of the dishes every 30 min in order to prevent drying. After 2 h, 10 mL growth medium was added, the culture was incubated for 2 days, and cells stably expressing shRNA were selected by adding puromycin (Sigma, cat.#P9620) at a final concentration of 1.5 μg/mL.
(§2) On the day of experiment, assay plates were prepared by seeding 3,000 HT1080, HT1080-pLKO, HT1080-TfR1 KD, Calu-1, Calu-1-pLKO, or Calu-1-509 cells per well in 36 μL of growth media to black, clear bottom 384-well plates. Also, assay plates were prepared by seeding 1,500 shRNA infected HT1080 or Calu-1 cells per well. Cells in assay plates were treated with each lethal compound in a 2-fold dilution series by transferring 4 μL solution from a 10× lethal plate of Erastin, Compound 3, Compound 27, or Compound 36. […] Percent growth inhibition (% GI) was calculated using fluorescence intensity values.

SNB-19 = assay: NCI60 anti-cancer screening; conditions: for GI50 / CC50: Homo sapiens; for GI50 / GI 100%: SNB-19; for CC50: SNB-19, read-out: LC 50%; for GI 100%: CNS Cancer
[2] = tested on: BJ-TERT/LT/ST/RAS^V12 cells; assay: Effect of cell cycle inhibitors on Compound 36-induced cell death; assay type: cell-based, human; conditions: apigenin, monastrol, olomoucine, nocodazole, hydroxyurea, colchicine, rapamycin
Procedure: BJ-TERT/LT/ST/RAS^V12 cells were seeded in a 384-well assay plate at a concentration of 4,000 cells per well in 32 μL culture volume. Cells were treated with cell cycle inhibitors by transferring 4 μL of 500 μM apigenin (Sigma, cat.#A3145), 1.5 mM monastrol (Sigma, cat.#M8515), 1 mM olomoucine (Sigma, cat.#00886), 2 μM Nocodazole (Sigma, cat.#M1404), 6 mM Hydroxy-urea (Sigma, cat.#H8627), 0.1 μM colchicine (Sigma, cat.#D6165), or 50 μM Rapamycine (Sigma, cat.#RO395) in growth media to the assay plate. […] The assay plate was incubated for 24 hours and alamar blue was added to the assay plate at a final concentration of 10%.

NCI-H460 = assay: NCI60 anti-cancer screening; conditions: for GI50 / CC50: Homo sapiens; for GI50 / GI 100%: NCI-H460; for CC50: NCI-H460, read-out: LC 50%; for GI 100%: Non-small cell lung carcinoma
SK-OV-3 = assay: NCI60 anti-cancer screening; conditions: for GI50 / CC50: Homo sapiens; for GI50 / GI 100%: SK-OV-3; for CC50: SK-OV-3, read-out: LC 50%; for GI 100%: Ovarian Cancer
HOP-62 = assay: NCI60 anti-cancer screening; assay type: cell-based; conditions: Non-small cell lung carcinoma
HT1080 cells = assay: Alamar blue assay with bioactive suppressors in HT1080; assay type: cell-based, human; conditions: 150 μM DFOM, 10 μM U0126, 50 μM SU6656, or 100 μM Vitamin E
Procedure: as §2

[3] = tested on: BJeH, BJeHLT, BJeLR and DRD cells; assay: Cell growth inhibition by stereoisomers of Compound 27; conditions: Homo sapiens
[4] = Maximum tolerated dose in mice; assay type: in vivo; conditions: mouse, in vivo, ip, single intraperitoneal injection in sterile PBS
Procedure: (§3) The maximum tolerated dose of Compound 27 was tested in mice.
(§4) Each mouse in the study was administered a single intraperitoneal injection of Compound 27 dissolved in sterile PBS at 100 mg/kg, 200 mg/kg, or 400 mg/kg.

mice = assay: Maximum tolerated dose in mice; assay type: in vivo; conditions: single intraperitoneal injection at 100, 200 or 400 mg/kg
Procedure: as §3, §4

[5] = tested on: Calu-1 cells expressing shRNAs targeting HRAS, NRAS or KRAS; assay: Drug sensitivity after shRNA knockdown of RAS; assay type: cell-based, human; conditions: alamar blue
Procedure: as §1, §2

| SMILES | PARP-1 cleavage / type of cell death [1] | sensitivity of HT1080-TfR1KD cells compared with parental HT1080 (HT1080-TfR1KD cells) | GI50 (SNB-19) [nM] | CC50 (SNB-19) [nM] | GI 100% (SNB-19) [µM] | effect of cell cycle blockers on compound-induced cell death [2] | GI50 (NCI-H460) [nM] | CC50 (NCI-H460) [nM] | GI 100% (NCI-H460) [µM] | GI50 (SK-OV-3) [nM] | CC50 (SK-OV-3) [nM] | GI 100% (SK-OV-3) [µM] | GI50 (HOP-62; Homo sapiens) [nM] | LC50 (HOP-62; Homo sapiens) [nM] | GI 100% (HOP-62) [µM] | treatments that inhibit compound-induced cell death in HT1080 cells (HT1080 cells) | EC50 [3] | MTD [4] [mg/kg] | mortality (mice) | sensitivity of Calu-1 cells after RAS shRNA compared with parental cells [5] |
| --- | --- | --- | --- | --- | --- | --- | --- | --- | --- | --- | --- | --- | --- | --- | --- | --- | --- | --- | --- | --- |
| COCCOC(=O)C1=C(C)NC2=C(C(=O)CC(c3ccc(Cl)cc3)C2)C1c1ccccc1F (stereo not shown) [Compound 3] | activate a non-apoptotic pathway | decreased sensitivity |  |  |  |  |  |  |  |  |  |  |  |  |  |  |  |  |  |  |
| C=C1CCC2C(C)(C)CCC[C@]2(C)C1CC/C(C)=C\CC/C(C)=N/NC(N)=S (stereo partly shown) [Compound 36] |  | decreased sensitivity | 1050 | 5000 | 2.29 | None of cell cycle blockers were effective | 626 | 5020 | 2.02 | 1260 | 5200 | 2.56 | 405 | 3770 | 1.42 |  |  |  |  |  |
| COC(=O)c1ccc(C2c3[nH]c4ccccc4c3CC(C(=O)OC)N2C(=O)CCl)cc1 (stereo not shown) [Compound 27] | activate a non-apoptotic pathway |  | 2350 | > 10000 | 7.41 |  | 1430 | 6740 | 3.11 | 1680 | 6670 | 3.34 |  |  |  | iron chelators, MEK inhibitors or non-receptor tyrosine kinase inhibitors effectively inhibited | ~0.05 µg/mL and ~100 nM | > 400 | None of the mice died | more resistant; also recorded: less effective |
